The supplement of paper PMC10307832

Columns and labels:
Assay in all cases: relative viability (nuclei count vs DMSO), 5 days (fraction); higher = more cells survive
[1] = compound: COc1cc2c(Oc3ccc4[nH]c(C)cc4c3F)ncnc2cc1OCCCN1CCCC1 [Cediranib] + Nc1nc2[nH]cc(CCc3ccc(C(=O)N[C@@H](CCC(=O)O)C(=O)O)cc3)c2c(=O)[nH]1 [Pemetrexed] (partner 0.2 µM)
Summary of the method: (§1)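 Lung cancer cell lines were seeded in 1536-well plates and dosed by pin tool the next day, with either a single drug or a fixed anchor-drug dose combined with five library-drug doses (not always all listed) spaced in √10 steps. Five days later, one step fixed the cells and stained their nuclei (final 0.05% Triton X-100, 1% formaldehyde, 1 ug/ml Hoechst), and nuclei were counted on 4× images. Relative viability is the nuclei count in treated wells divided by the count in vehicle wells, and each value is the median of duplicate plates.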

[2] = compound: O=C(C[C@H]1NCCC[C@@H]1O)Cn1cnc2cc(Br)c(Cl)cc2c1=O (racemic) [Halofuginone] + CC(C)C[C@H](NC(=O)[C@H](Cc1ccccc1)NC(=O)c1cnccn1)B(O)O [Bortezomib] (partner 0.002 µM)
Summary of the method: as §1

[3] = compound: COc1cc2c(Oc3ccc4[nH]c(C)cc4c3F)ncnc2cc1OCCCN1CCCC1 [Cediranib] + CS(=O)(=O)N1CCN(Cc2cc3nc(-c4cccc5[nH]ncc45)nc(N4CCOCC4)c3s2)CC1 [Pictilisib] (partner 1 µM)
Summary of the method: as §1

[4] = compound: COc1cc2c(Oc3ccc4[nH]c(C)cc4c3F)ncnc2cc1OCCCN1CCCC1 [Cediranib] + CC(C)C[C@H](NC(=O)[C@H](Cc1ccccc1)NC(=O)c1cnccn1)B(O)O [Bortezomib] (partner 0.002 µM)
Summary of the method: as §1

Row | Cell Line | relative viability ([1]; first compound 0.04 µM) | relative viability ([1]; first compound 0.4 µM) | relative viability ([1]; first compound 1.265 µM) | relative viability ([1]; first compound 4 µM) | relative viability ([2]; first compound 0.001 µM) | relative viability ([2]; first compound 0.003162 µM) | relative viability ([2]; first compound 0.01 µM) | relative viability ([2]; first compound 0.03162 µM) | relative viability ([2]; first compound 0.1 µM) | relative viability ([3]; first compound 0.04 µM) | relative viability ([3]; first compound 0.4 µM) | relative viability ([3]; first compound 1.265 µM) | relative viability ([3]; first compound 4 µM) | relative viability ([4]; first compound 0.04 µM) | relative viability ([4]; first compound 0.4 µM) | relative viability ([4]; first compound 1.265 µM) | relative viability ([4]; first compound 4 µM) | relative viability ([3]; first compound 0.1265 µM) | relative viability ([4]; first compound 0.1265 µM) | relative viability ([1]; first compound 0.1265 µM)
1 | LU99A | 0.173 | 0.172 | 0.2 | 0.17 | 1.15 | 1.1 | 1.07 | 1.14 | 0.8 | 0.354 | 0.314 | 0.276 | 0.36 | 1.27 | 1.12 | 0.942 | 1.17 | – | – | –
2 | LXF-289 | 1.1 | 0.8 | 0.936 | 0.863 | 0.928 | 1.08 | 0.985 | 0.996 | 0.908 | 0.815 | 0.729 | 0.779 | 0.819 | 1.04 | 0.969 | 0.97 | 0.958 | 0.783 | 0.87 | –
3 | NCI-H23 | 0.602 | 0.525 | 0.692 | 0.699 | 1 | 1.24 | 1.02 | 0.947 | 0.494 | 0.472 | 0.533 | 0.345 | 0.569 | 1.07 | 0.938 | 0.907 | 1.32 | – | – | 0.693
4 | NCI-H322M | 0.64 | 0.592 | 0.648 | 0.572 | 1.16 | 1.13 | 1.28 | 1.16 | 0.997 | 0.52 | 0.533 | 0.467 | 0.521 | 1.29 | 1.32 | 1.24 | 1.28 | 0.698 | 1.56 | 0.684
5 | NCI-H441 | 0.265 | 0.258 | 0.271 | 0.257 | 0.456 | 0.457 | 0.6 | 0.491 | 0.433 | 0.492 | 0.45 | 0.378 | 0.426 | 0.304 | – | 0.498 | 0.934 | 0.474 | 0.688 | 0.291
6 | NCI-H460 | 0.0716 | 0.0685 | 0.0585 | 0.0931 | 1.07 | 1.09 | 0.922 | 0.66 | 0.0555 | 0.466 | 0.355 | 0.33 | 0.397 | 1.06 | 1.01 | 0.987 | 1.39 | 0.7 | 1.23 | 0.0662
7 | NCI-H520 | 0.668 | 0.623 | 0.602 | 0.563 | 0.723 | 0.721 | 0.494 | 0.579 | 0.314 | 0.312 | 0.246 | 0.221 | 0.22 | 0.734 | 0.687 | 0.462 | 0.622 | – | – | 0.789
8 | NCI-H596 | 0.472 | 0.427 | 0.476 | 0.525 | 1 | 1.01 | 0.934 | 1.01 | 0.698 | 0.458 | 0.348 | 0.37 | 0.241 | 1.05 | 0.831 | 1 | 1.09 | 0.493 | 1.01 | 0.499
9 | NCI-H647 | 0.185 | 0.2 | 0.178 | 0.172 | 1.2 | 1.1 | 0.833 | 0.912 | 0.367 | 0.429 | 0.392 | 0.324 | 0.385 | 1.1 | 0.845 | 0.728 | 1.16 | – | 1.02 | 0.254
10 | NCI-H650 | 0.862 | 0.955 | 0.978 | 1.08 | 0.903 | 0.877 | 0.717 | 0.694 | 0.576 | 0.848 | 0.836 | 0.915 | 1.04 | 0.873 | 0.879 | 0.764 | 0.718 | 0.956 | 0.625 | 0.569
11 | NCI-H661 | 0.974 | 0.935 | 0.891 | 1.03 | 0.848 | 0.826 | 0.845 | 0.822 | 0.536 | 0.428 | 0.419 | 0.318 | 0.366 | 0.907 | 0.793 | 0.805 | 1.16 | 0.588 | 1.11 | 0.927
12 | NCI-H838 | 0.252 | 0.229 | 0.257 | 0.231 | 1.16 | 1.03 | 0.746 | 0.614 | 0.121 | 0.542 | 0.395 | 0.275 | 0.558 | 0.812 | 0.926 | 0.713 | 1.05 | 0.46 | 0.557 | 0.241
13 | NCI-H1355 | 1.13 | 0.95 | 1.02 | 1.08 | 1.13 | 1.19 | 1.18 | 1.24 | 0.951 | 0.392 | 0.41 | 0.263 | 0.476 | 1.18 | 1.23 | 1.24 | 1.21 | 0.273 | 1.17 | 1.06
14 | NCI-H1437 | 0.33 | 0.289 | 0.334 | 0.337 | 0.548 | 0.604 | 0.504 | 0.483 | 0.253 | 0.484 | 0.442 | 0.228 | 0.499 | 0.55 | 0.554 | 0.565 | 0.673 | 0.413 | 0.407 | 0.299
15 | NCI-H1563 | 0.885 | 0.843 | 0.675 | 0.872 | 0.708 | 0.885 | 0.686 | 0.585 | 0.515 | 0.727 | 0.711 | 0.66 | 0.595 | 0.912 | 0.885 | 0.796 | 0.889 | 0.576 | 0.794 | 0.879
16 | NCI-H1650 | 0.394 | 0.38 | 0.349 | 0.384 | 0.234 | 0.24 | 0.208 | 0.221 | 0.203 | 0.61 | 0.494 | 0.468 | 0.383 | 0.201 | 0.205 | 0.223 | 0.194 | 0.234 | 0.169 | 0.364
